This test has as its system A2780 cells. The experiment in a line: In-vitro cell proliferation assay (SRB, 72 hours). The format is cell-based. The note with it: Homo sapiens, A2780, 72 h, A2780 cells, 72 hours, SRB; read-out: Cell Proliferation (IC50).

`CCc1noc(C)c1C(=O)N1CCC2(CC1)CC2CNC(=O)c1cc2ccncc2o1` (stereo not shown) [Example 136, N-[[6-(3-ethyl-5-methyl-isoxazole-4-carbonyl)-6-azaspiro[2.5]octan-2-yl)methyl]furo[2,3-c]pyridine-2-carboxamide]: the IC50 was found to be 169 nM.
The result for `CCn1nc(C)cc1C(=O)N1CCC2(CC1)CC2CNC(=O)c1cc2ccncc2o1` (stereo not shown) [Example 137, N-[[6-(2-ethyl-5-methyl-pyrazole-3-carbonyl)-6-azaspiro[2.5]octan-2-yl]methyl]furo[2,3-c]pyridine-2-carboxamide] reads 116 nM; that for `CCn1cc(C(=O)N2CCC3(CC2)CC3CNC(=O)c2cc3ccncc3o2)c(C)n1` (stereo not shown) [Example 138, N-[[6-(1-ethyl-3-methyl-pyrazole-4-carbonyl)-6-azaspiro[2.5]octan-2-yl)methyl]furo[2,3-c]pyridine-2-carboxamide], 2000 nM; that for `Cc1nocc1C(=O)N1CCC2(CC1)CC2CNC(=O)c1cc2ccncc2o1` (stereo not shown) [Example 139, N-[[6-(3-methylisoxazole-4-carbonyl)-6-azaspiro[2.5]octan-2-yl]methyl]furo[2,3-c]pyridine-2-carboxamide], 2000 nM.
For `Cc1ccn(CC(C)C(=O)N2CCC3(CC2)CC3CNC(=O)c2cc3ccncc3o2)n1` (stereo not shown) [Example 140, N-[[6-[2-methyl-3-(3-methylpyrazol-1-yl)propanoyl]-6-azaspiro[2.5]octan-2-yl]methyl]furo[2,3-c]pyridine-2-carboxamide] the value was 2000 nM.
As to `O=C(NCC1CC12CCN(C(=O)c1cn[nH]c1)CC2)c1cc2ccncc2o1` (stereo not shown) [Example 141, N-[[6-(1H-pyrazole-4-carbonyl)-6-azaspiro[2.5]octan-2-yl]methyl]furo[2,3-c]pyridine-2-carboxamide], the IC50 amounted to 2000 nM.
`CS(=O)(=O)N1CCC(CC(=O)N2CCC3(CC2)CC3CNC(=O)c2cc3ccncc3o2)CC1` (stereo not shown) [Example 142, N-[[6-[2-(1-methylsulfonyl-4-piperidyl)acetyl]-6-azaspiro[2.5]octan-2-yl]methyl]furo[2,3-c]pyridine-2-carboxamide]: the IC50 was 97.1 nM.
The result for `CN1CCOC(C(=O)N2CCC3(CC2)CC3CNC(=O)c2cc3ccncc3o2)C1` (stereo not shown) [Example 143, N-[[6-(4-methylmorpholine-2-carbonyl)-6-azaspiro[2.5]octan-2-yl]methyl]furo[2,3-c]pyridine-2-carboxamide] reads 2000 nM.
The result for `CC(C)C(=O)N1CC(C(=O)N2CCC3(CC2)CC3CNC(=O)c2cc3ccncc3o2)C1` (stereo not shown) [Example 144, N-[[6-[1-(2-methylpropanoyl)azetidine-3-carbonyl]-6-azaspiro[2.5]octan-2-yl]methyl]furo[2,3-c]pyridine-2-carboxamide] reads 375 nM; that for `CC(=O)N1CC(C(=O)N2CCC3(CC2)CC3CNC(=O)c2cc3ccncc3o2)C1` (stereo not shown) [Example 145, N-[[6-(1-acetylazetidine-3-carbonyl)-6-azaspiro[2.5]octan-2-yl]methyl]furo[2,3-c]pyridine-2-carboxamide], 2000 nM.
For `O=C(NCC1CC12CCN(C(=O)C1CCN(c3cccnn3)C1)CC2)c1cc2ccncc2o1` (stereo not shown) [Example 146, N-[[6-(1-pyridazin-3-ylpyrrolidine-3-carbonyl)-6-azaspiro[2.5]octan-2-yl)methyl]furo[2,3-c]pyridine-2-carboxamide] the value was 74.5 nM; for `O=C(NCC1CC12CCN(C(=O)CC1CCN(c3ncccn3)CC1)CC2)c1cc2ccncc2o1` (stereo not shown) [Example 147, N-[[6-[2-(1-pyrimidin-2-yl-4-piperidyl)acetyl]-6-azaspiro[2.5]octan-2-yl]methyl]furo[2,3-c]pyridine-2-carboxamide], 74.4 nM.
As for `CC(C)N1CCC(CC(=O)N2CCC3(CC2)CC3CNC(=O)c2cc3ccncc3o2)CC1` (stereo not shown) [Example 148, N-[[6-[2-(1-isopropyl-4-piperidyl)acetyl]-6-azaspiro[2.5]octan-2-yl]methyl]furo[2,3-c]pyridine-2-carboxamide], the IC50 stood at 102 nM.
For `CN1CCC(CC(=O)N2CCC3(CC2)CC3CNC(=O)c2cc3ccncc3o2)CC1` (stereo not shown) [Example 149, N-[(6-[2-(1-methyl-4-piperidyl)acetyl]-6-azaspiro[2.5]octan-2-yl]methyl]furo[2,3-c]pyridine-2-carboxamide] the value was 496 nM; for `CC1(CC(=O)N2CCC3(CC2)CC3CNC(=O)c2cc3cnccc3[nH]2)COC1` (stereo not shown) [Example 150, N-([6-[2-(3-methyloxetan-3-yl)acetyl]-6-azaspiro[2.5]octan-1-yl]methyl)-1H-pyrrolo[3,2-c]pyridine-2-carboxamide], 265 nM.
The result for `N#Cc1ccccc1CC(=O)N1CCC2(CC1)CC2CNC(=O)c1cc2ccncc2o1` (stereo not shown) [Example 152, N-[[6-[2-(2-cyanophenyl)acetyl]-6-azaspiro[2.5]octan-2-yl]methyl]furo[2,3-c]pyridine-2-carboxamide] reads 262 nM.
For `COCCC(=O)N1CCC2(CC1)CC2CNC(=O)c1cc2ccncc2o1` (stereo not shown) [Example 153, N-[[6-(3-methoxypropanoyl)-6-azaspiro[2.5]octan-2-yl]methyl]furo[2,3-c]pyridine-2-carboxamide] the value was 2000 nM; for `O=C(NCC1CC12CCN(C(=O)Cc1ccc(S(=O)(=O)C(F)(F)F)cc1)CC2)c1cc2ccncc2o1` (stereo not shown) [Example 154, N-[[6-[2-[4-(trifluoromethylsulfonyl)phenyl]acetyl]-6-azaspiro[2.5]octan-2-yl]methyl]furo[2,3-c]pyridine-2-carboxamide], 2610 nM.
On to `CC(=O)N(C)CCC(=O)N1CCC2(CC1)CC2CNC(=O)c1cc2ccncc2o1` (stereo not shown) [Example 155, N-[[6-[3-[acetyl(methyl]amino]propanoyl]-6-azaspiro[2.5]octan-2-yl]methyl]furo[2,3-c]pyridine-2-carboxamide], for which the IC50 came out at 2000 nM.
The result for `N#Cc1ccc(NC(=O)N2CCC3(CC2)CC3CNC(=O)c2cc3ccncc3o2)cc1` (stereo not shown) [Example 157, N-[[6-[(4-cyanophenyl)carbamoyl]-6-azaspiro[2.5]octan-2-yl)methyl]furo[2,3-c]pyridine-2-carboxamide] reads 2000 nM; that for `Cc1cccc(CNC(=O)N2CCC3(CC2)CC3CNC(=O)c2cc3ccncc3o2)c1` (stereo not shown) [Example 158, N-[[6-(m-tolylmethylcarbamoyl)-6-azaspiro[2.5]octan-2-yl]methyl]furo[2,3-c]pyridine-2-carboxamide], 2000 nM; that for `Cc1ccc(NC(=O)N2CCC3(CC2)CC3CNC(=O)c2cc3ccncc3o2)cc1` (stereo not shown) [Example 159, N-[[6-(p-tolylcarbamoyl)-6-azaspiro[2.5]octan-2-yl]methyl]furo[2,3-c]pyridine-2-carboxamide], 274 nM.
The result for `O=C(NCC1CC12CCN(C(=O)NCc1ccccc1)CC2)c1cc2ccncc2o1` (stereo not shown) [Example 160] reads 2000 nM; that for `O=C(NCC1CC12CCN(C(=O)NCc1ccccc1F)CC2)c1cc2ccncc2o1` (stereo not shown) [Example 161, N-[[6-[(2-fluorophenyl)methylcarbamoyl]-6-azaspiro[2.5]octan-2-yl]methyl]furo[2,3-c]pyridine-2-carboxamide], 2000 nM; that for `Cc1ccc(CNC(=O)N2CCC3(CC2)CC3CNC(=O)c2cc3ccncc3o2)cc1` (stereo not shown) [Example 162, N-[[6-(p-tolylmethylcarbamoyl)-6-azaspiro[2.5]octan-2-yl]methyl]furo[2,3-c]pyridine-2-carboxamide], 2000 nM.
The result for `O=C(NCC1CC12CCN(C(=O)NCc1ccc(F)cc1)CC2)c1cc2ccncc2o1` (stereo not shown) [Example 163, N-[[6-[(4-fluorophenyl)methylcarbamoyl]-6-azaspiro[2.5]octan-2-yl]methyl]furo[2,3-c]pyridine-2-carboxamide] reads 2000 nM; that for `COc1ccccc1CNC(=O)N1CCC2(CC1)CC2CNC(=O)c1cc2ccncc2o1` (stereo not shown) [Example 164, N-[[6-((2-methoxyphenyl)methylcarbamoyl]-6-azaspiro[2.5]octan-2-yl]methyl]furo[2,3-c]pyridine-2-carboxamide], 1540 nM; that for `COc1cccc(CNC(=O)N2CCC3(CC2)CC3CNC(=O)c2cc3ccncc3o2)c1` (stereo not shown) [Example 165, N-[[6-[(3-methoxyphenyl)methylcarbamoyl]-6-azaspiro[2.5]octan-2-yl]methyl]furo[2,3-c]pyridine-2-carboxamide], 2000 nM.
On to `O=C(NCC1CC12CCN(C(=O)NCc1cccc(F)c1)CC2)c1cc2ccncc2o1` (stereo not shown) [Example 166, N-[[6-[(3-fluorophenyl)methylcarbamoyl]-6-azaspiro[2.5]octan-2-yl]methyl]furo[2,3-c]pyridine-2-carboxamide], for which the IC50 turned out to be 2000 nM.
With `COc1ccc(CNC(=O)N2CCC3(CC2)CC3CNC(=O)c2cc3ccncc3o2)cc1` (stereo not shown) [Example 167, N-[[6-[(4-methoxyphenyl)methylcarbamoyl]-6-azaspiro[2.5]octan-2-yl]methyl]furo[2,3-c]pyridine-2-carboxamide], the IC50 was found to be 2000 nM.
The result for `O=C(NCC1CC12CCN(C(=O)NCc1ccc(Cl)c(Cl)c1)CC2)c1cc2ccncc2o1` (stereo not shown) [Example 168, N-[[6-[(3,4-dichlorophenyl)methylcarbamoyl]-6-azaspiro[2.5]octan-2-yl]methyl]furo[2,3-c]pyridine-2-carboxamide] reads 2000 nM.
For `O=C(NCC1CC12CCN(C(=O)NC13CC4CC(CC(C4)C1)C3)CC2)c1cc2ccncc2o1` (stereo not shown) [Example 169, N-[[6-(1-adamantylcarbamoyl)-6-azaspiro[2.5]octan-2-yl]methyl]furo[2,3-c]pyridine-2-carboxamide] the value was 27.8 nM; for `O=C(NCC1CC12CCN(C(=O)NCc1ccc(Cl)cc1)CC2)c1cc2ccncc2o1` (stereo not shown) [Example 170, N-[[6-[(4-chlorophenyl)methylcarbamoyl]-6-azaspiro[2.5]octan-2-yl]methyl]furo[2,3-c]pyridine-2-carboxamide], 2000 nM.
For `O=C(NCC1CC12CCN(C(=O)NCc1ccccc1Cl)CC2)c1cc2ccncc2o1` (stereo not shown) [Example 171, N-[[6-[(2-chlorophenyl)methylcarbamoyl]-6-azaspiro[2.5]octan-2-yl]methyl]furo[2,3-c]pyridine-2-carboxamide] the value was 2000 nM.

Values taken from US10730889B2, “Amido spirocyclic amide and sulfonamide derivatives” (Forma TM, LLC, priority 2012, dated 2020).
